Active and inactive are the calls of the source. Cut-off read from the data, not from the text of the source, for most assays here: actives have a measured EC50 and inactives only a lower limit.
Assays:
[1] = inhibitors of firefly luciferase expression or activity, dose response, H4 neuroglioma cells, luminescence (AID 1990); type: functional, cell-based
[2] = Luminescence Cell-Based Dose Response HTS to Identify Inhibitors of 5'UTR Stem-Loop Driven Prion Protein mRNA Translation in H4 Neuroglioblastoma Cells. [Related pubchem assays: 1827 (Project Summary), 1813 (Primary HTS)]; type: functional
[3] = inhibitors of SNCA 5'UTR-driven reporter translation, confirmation, H4 neuroglioma cells, luminescence (AID 1988); type: functional, cell-based
[4] = tested on: Streptococcus sp. 'group A'; assay: growth inhibition of control SK(-) GAS strain, dose response, counter-screen for streptokinase expression inhibitor project, luminescence, kanamycin, BacTiterGlo, confirmation (AID 1900); type: functional, organism-based
Streptokinase A = biological target: T1, Streptokinase A (Streptococcus pyogenes serotype M1, UniProt P10520); assay: S. pyogenes streptokinase expression inhibitors, potency, dose response, plasminogen activation absorbance, OD405 (AID 1914); type: functional, Streptococcus pyogenes M1 GAS;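 note: secreted streptokinase activity via plasminogen activation per viability signal from cell pellet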
T1 sequence (P10520 whole entry): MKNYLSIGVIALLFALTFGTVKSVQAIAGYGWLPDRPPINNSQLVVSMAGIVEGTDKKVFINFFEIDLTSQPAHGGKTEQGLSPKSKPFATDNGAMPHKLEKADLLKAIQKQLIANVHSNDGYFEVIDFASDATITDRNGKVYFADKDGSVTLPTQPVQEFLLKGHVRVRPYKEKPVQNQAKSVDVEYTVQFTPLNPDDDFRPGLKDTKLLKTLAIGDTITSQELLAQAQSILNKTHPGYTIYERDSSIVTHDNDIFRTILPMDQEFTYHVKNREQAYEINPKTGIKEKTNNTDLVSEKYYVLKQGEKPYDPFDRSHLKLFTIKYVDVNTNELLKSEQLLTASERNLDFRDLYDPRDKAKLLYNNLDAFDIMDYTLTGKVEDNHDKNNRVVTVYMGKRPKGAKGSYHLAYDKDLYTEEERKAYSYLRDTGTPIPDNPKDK

Streptococcus = assay: Group A Streptococcus viability loss, dose response, counter-screen for streptokinase expression inhibitor project, luminescence, BacTiterGlo (AID 1915); type: functional, organism-based;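 note: potency for reduction of bacterial viability or growth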
[5] = HEp-2 cell cytotoxicity, dose response, cytotoxicity control for RSV inhibitor project, HTS (AID 2410); type: functional; details: human respiratory syncytial virus
[6] = biological target: T2, Calpain-2 catalytic subunit (Sus scrofa, UniProt P43367); assay: pig calpain II inhibitor potency, dose response, biochemical, fluorogenic peptide substrate (AID 1420); type: functional
T2 sequence (P43367 whole entry): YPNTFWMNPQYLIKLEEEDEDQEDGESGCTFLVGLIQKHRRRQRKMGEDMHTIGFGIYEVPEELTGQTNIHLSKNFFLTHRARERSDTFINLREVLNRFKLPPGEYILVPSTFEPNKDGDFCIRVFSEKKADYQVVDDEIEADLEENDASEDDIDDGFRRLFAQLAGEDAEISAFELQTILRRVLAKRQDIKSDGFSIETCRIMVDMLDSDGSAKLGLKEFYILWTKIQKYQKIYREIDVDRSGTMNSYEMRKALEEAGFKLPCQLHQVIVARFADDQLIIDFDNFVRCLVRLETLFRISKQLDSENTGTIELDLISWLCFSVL

[7] = biological target: T3, Corticotropin-releasing factor receptor 2/Corticotropin-releasing factor-binding protein (Homo sapiens, UniProt P24387+Q13324); assay: Dose Response confirmation of uHTS hits for small molecule antagonists of the CRF-binding protein and CRF-R2 receptor complex.; type: functional; details: read-out: IC50_Mean
T3 sequence (Q13324 whole entry): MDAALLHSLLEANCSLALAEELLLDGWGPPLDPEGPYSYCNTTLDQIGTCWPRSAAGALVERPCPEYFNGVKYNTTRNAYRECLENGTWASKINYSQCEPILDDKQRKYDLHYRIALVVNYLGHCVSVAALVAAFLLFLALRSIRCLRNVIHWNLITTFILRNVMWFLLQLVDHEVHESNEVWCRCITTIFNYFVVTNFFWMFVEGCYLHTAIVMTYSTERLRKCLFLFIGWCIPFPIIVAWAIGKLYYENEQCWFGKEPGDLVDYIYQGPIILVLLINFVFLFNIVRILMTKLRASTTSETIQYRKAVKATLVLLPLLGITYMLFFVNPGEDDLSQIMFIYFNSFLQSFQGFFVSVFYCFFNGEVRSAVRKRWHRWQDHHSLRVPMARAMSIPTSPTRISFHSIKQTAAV
T3 sequence (P24387 whole entry): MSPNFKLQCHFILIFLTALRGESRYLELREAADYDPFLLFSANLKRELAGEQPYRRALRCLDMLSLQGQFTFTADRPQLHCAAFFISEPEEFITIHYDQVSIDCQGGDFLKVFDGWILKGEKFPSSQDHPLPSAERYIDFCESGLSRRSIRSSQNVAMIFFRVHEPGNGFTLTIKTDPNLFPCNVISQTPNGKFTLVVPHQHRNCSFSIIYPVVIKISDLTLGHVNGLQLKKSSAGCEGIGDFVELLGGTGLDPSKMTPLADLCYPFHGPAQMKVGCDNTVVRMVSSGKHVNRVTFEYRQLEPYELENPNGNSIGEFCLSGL

[8] = biological target: T3, Corticotropin-releasing factor receptor 2/Corticotropin-releasing factor-binding protein; assay: activators of CRF receptor 2 with binding protein – uHTS hits, confirmation (AID 602473); type: functional; details: read-out: EC50_Mean
cells [9] = type: functional, cell-based
cells [10] = type: functional, cell-based; remark: listed apart in the source
INS1 = assay: beta cell apoptosis inhibitors, cytokine rescue, dose response, luminescence, retest (AID 449756); type: functional, cell-based; details: Rattus norvegicus;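 note: cell death triggered by IL-1 beta plus TNF-alpha plus IFN-gamma mixture; protective hits raise ATP signal compared with cytokine alone wells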

Row | Structure (SMILES) | EC50 [1] | EC50 [2] | EC50 [3] | EC50 (Streptokinase A) | other results
1 | CCCNC(=O)c1ccc(N2CCC3(CC2)CC(c2ccccc2)=NO3)c(NC(=O)c2ccccc2)c1 | 18.7 µM (active) | > 120 µM (not active) | 12.7 µM (active) |  | 
2 | Cc1nn(Cc2ccc(Cl)cc2Cl)c(C)c1NC(=O)NC12CC3CC(CC(C3)C1)C2 |  |  |  | 32.7 µM (active) | EC50 [4]: 7.54 µM (active); EC50 (Streptococcus): 33.4 µM (active)
3 | Nc1c(S(=O)(=O)c2cccs2)c2nc3ccccc3nc2n1Cc1ccccc1 | 20.7 µM (active) | > 120 µM (not active) | > 120 µM (not active) |  | 
4 | NC(=O)c1ccc(NC(=O)COC(=O)C2(c3ccccc3F)CCCC2)cc1 | > 120 µM (not active) | > 120 µM (not active) | 17.5 µM (active) |  | 
5 | CCCn1c(C2CCCN2c2nc(-c3cccc(Br)c3)cs2)nc2cc(Cl)c(Cl)cc21 (stereo not given) |  |  |  | > 150 µM (not active) | EC50 [4]: 2.99 µM (active); EC50 (Streptococcus): 56.5 µM (active)
6 | Fc1cccc(Cl)c1CSc1ccc(-c2cccnc2)nn1 |  |  |  |  | CC50 [5]: > 50 µM (active); IC50 [6]: 29.7 µM (not active)
7 | Cc1ccc(S(=O)(=O)N2c3ccccc3OCC2C(C)(C)C)cc1 (stereo not given) |  |  |  | 16.9 µM (active) | EC50 [4]: 16.4 µM (active); EC50 (Streptococcus): > 150 µM (not active); IC50 [7]: > 47.1 µM (inactive); EC50 [8]: > 53 µM (inactive)
8 | CC(C)N(Cc1nc(-c2ccccc2)no1)C(=O)CCCN1C(=O)c2ccccc2C1=O |  |  |  |  | IC50 [6]: > 50 µM (not active)
9 | Cc1nc2c(C(=O)Nc3ccc(N4CCCC(O)C4)cc3)snc2c(=O)[nH]1 (stereo not given) |  |  |  | > 150 µM (not active) | 
10 | Cc1ccc(-n2c(SCC(=O)NCCC3=CCCCC3)nc3nnc(C)c-3c2N)cc1Cl | 23 µM (active) | 75.9 µM (active) | > 120 µM (not active) |  | 
11 | Clc1c(CSc2nc3ccccc3o2)nc2sccn12 |  |  |  |  | EC50 (cells [9]): > 350 µM (not active); EC50 (cells [10]): 21 µM (active)
12 | CCC(CC)C1=NN2C(=N)/C(=C\c3c(C)[nH]c4ccccc34)C(=O)N=C2S1 |  |  |  | 18.9 µM (inconclusive) | CC50 [5]: 16.1 µM (active); EC50 [4]: 5.71 µM (active); EC50 (Streptococcus): 53 µM (active)
13 | OCc1cccc[n+]1CCc1ccccc1 | > 120 µM (not active) | 48.4 µM (active) | > 120 µM (not active) |  | 
14 | CCC1CCCCN1CCCNC(=O)C1CCN(c2nnc(-n3cccc3)s2)CC1 (stereo not given) |  |  |  |  | EC50 (cells [9]): > 350 µM (not active); EC50 (cells [10]): > 350 µM (not active)
15 | O=C(C1CC12CCCC2)N1CCC(CO)(Cc2ccccc2Cl)CC1 (stereo not given) | 19 µM (active) | 120 µM (active) | > 120 µM (not active) |  | 
16 | CCC(CO)Nc1ncnc2c1cnn2-c1ccc(OC)cc1 (stereo not given) |  |  |  | > 150 µM (not active) | EC50 [4]: > 150 µM (not active); EC50 (Streptococcus): > 150 µM (not active)
17 | O=C(NNC(=O)c1cccnc1SCc1cccc([N+](=O)[O-])c1)c1ccc(F)cc1 |  |  |  |  | AC50 (INS1): 7.02 µM (active)

Source: ChEMBL document CHEMBL1201862, “PubChem BioAssay data set” (2004)
